From patent US20260327211A1, “MODULATORS OF A POTASSIUM CHANNEL AND OF TRPV1 CHANNEL AND USES THEREOF” (Bsense Bio Therapeutics Ltd., priority 2023, published 2026)
Values joined by “and” are separate entries in the source; they are usually repeats but may differ in a detail not shown here. Equal entries are not always repeated. Where two headings read alike, the source gives them in different places.

What was measured:
[1] = Human liver microsome metabolic stability; format: in vitro ADME; conditions: for microsomal CLint at 1 µM: read-out: HLM Clint; for half-life at 1 µM: human, liver microsomes, read-out: HLM T1/2
Procedure, shortened: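 Compound at 1 μM was incubated at 37 °C with pooled liver microsomes at 0.5 mg/mL and an NADPH regenerating system (about 1.0 mM). Samples were taken from 0 to 60 min, quenched in cold acetonitrile and quantified by LC-MS/MS against an internal standard. CLint was scaled with species liver weights (rat 40 g/kg, human 20 g/kg).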

[2] = target: hERG (Homo sapiens, UniProt Q12809); assay: hERG HCS, FLIPR potassium assay, CHO/hERG; format: cell-based; design: host or cells: CHO; conditions: for hERG IC50 (inhibition in parentheses): at highest concentration shown
hERG, sequence (Q12809 whole entry): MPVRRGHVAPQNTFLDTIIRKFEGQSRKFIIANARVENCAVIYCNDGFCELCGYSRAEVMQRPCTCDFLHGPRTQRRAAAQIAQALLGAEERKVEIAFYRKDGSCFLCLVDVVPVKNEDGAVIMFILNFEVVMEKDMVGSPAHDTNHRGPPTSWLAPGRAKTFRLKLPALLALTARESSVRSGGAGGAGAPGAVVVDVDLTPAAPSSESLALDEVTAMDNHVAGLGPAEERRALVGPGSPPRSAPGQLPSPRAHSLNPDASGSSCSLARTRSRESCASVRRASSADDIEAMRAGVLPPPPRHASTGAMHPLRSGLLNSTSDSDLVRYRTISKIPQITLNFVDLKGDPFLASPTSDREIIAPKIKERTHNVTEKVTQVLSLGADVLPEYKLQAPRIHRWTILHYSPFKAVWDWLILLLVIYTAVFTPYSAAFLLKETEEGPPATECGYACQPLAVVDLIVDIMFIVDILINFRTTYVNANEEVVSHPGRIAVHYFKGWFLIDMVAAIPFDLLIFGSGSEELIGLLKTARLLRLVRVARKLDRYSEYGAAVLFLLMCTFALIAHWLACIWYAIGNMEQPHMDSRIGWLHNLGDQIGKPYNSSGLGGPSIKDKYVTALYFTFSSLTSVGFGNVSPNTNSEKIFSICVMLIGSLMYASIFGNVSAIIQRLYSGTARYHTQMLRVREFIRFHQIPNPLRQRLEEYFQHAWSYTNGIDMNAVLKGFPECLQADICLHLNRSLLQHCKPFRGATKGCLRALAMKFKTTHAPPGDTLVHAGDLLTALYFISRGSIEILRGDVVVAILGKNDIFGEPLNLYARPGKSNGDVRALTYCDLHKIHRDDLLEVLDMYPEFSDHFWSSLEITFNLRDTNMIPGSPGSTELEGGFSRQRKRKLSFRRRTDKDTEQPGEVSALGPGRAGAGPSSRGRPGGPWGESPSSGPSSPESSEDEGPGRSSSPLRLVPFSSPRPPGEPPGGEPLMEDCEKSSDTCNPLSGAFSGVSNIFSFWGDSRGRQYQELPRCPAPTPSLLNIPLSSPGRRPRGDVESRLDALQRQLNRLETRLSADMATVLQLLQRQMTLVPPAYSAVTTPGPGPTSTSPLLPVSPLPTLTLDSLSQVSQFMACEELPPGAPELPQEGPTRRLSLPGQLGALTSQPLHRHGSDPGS
Procedure: Cell culture: Chinese hamster ovary (CHO) cell-line cells with a constitutive expression of human hERG channels (B'SYS GmbH, Switzerland) were cultured in F-12 nutrient mixture (Biological Industries) supplemented with 10% fetal bovine serum (Biological Industries) and 1% penicillin-streptomycin (Biological Industries) in a humidified 5% CO2 incubator at 37° C. To maintain the hERG expression stability of the CHO cell line, antibiotics selection (G418 […] and Hygromycin 500) was applied.
FLIPR Potassium Assay Kit: The FLIPR Potassium Assay Kit (R8222 FLIPR Potassium Assay Explorer Kits, Molecular Devices) was used with CHO/hERG cell line, for screening compounds against the hERG ion-channel off-target, as detailed hereinabove.
According to optimization process, to achieve a uniform and consistent screening condition of molecules, the following protocol was established: Cells were seeded in 384-well, black-walled, clear-bottomed, at a density of 7,500 cells per well 24 hours before the assay conductance and incubated overnight in their normal growth medium. On the experiment day the medium was replaced with HBSS, HEPES, and the tested compound/vehicle (0.2% DMSO). Dye solution (prepared according to the manufacturer) was added to the wells and plates were incubated for 1.5 hour light-protected in room temperature. The Tecan Spark plate-reader injectors were primed with Tl+(1 mM Tl2SO4) or Tl++K+(1 mM Tl2SO4; 10 mM K2SO4) for channel activation and data correction. […]. To calculate IC50 values, the data was fitted to sigmoidal regression using Prism GraphPad.

[3] = Log D, 1-octanol/buffer shake flask; format: physicochemical; conditions: pH 7.4
Procedure, shortened: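 Compound from a 10 mM DMSO stock was partitioned between mutually saturated 1-octanol and 0.1 M phosphate buffer by shaking for 1 h at room temperature, then centrifuged. Each phase was diluted and quantified by LC/MS/MS. Log D came from the ratio of dilution- and internal-standard-corrected peak areas.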

[4] = test system: rat DRG neurons; assay: Rat DRG neurons, capsaicin-evoked action potential firing; format: cell-based; conditions: for IC50: capsaicin 1 μM, read-out: Rat DRGs, CAP IC50
Text: rDRGs isolation and primary cell culture: Briefly, rat DRGs from all spinal levels were carefully removed and collected in HBSS on ices, connective tissue of the epineurium surrounding the ganglion was removed and cells were dissociated using Collagenase-II and trypsin dissociation solutions. DRGs were dissociated further, passed through glass Pasteur pipettes to obtain single cells. Then dissociation solution was changed to 5% FBS containing DRG neuronal culture medium and plated onto ECL coated 12 mm cover glass.
Additional rDRGs experiments were performed using Lonza primary neonatal rat (Sprague Dawley neonatal; P2,3) DRG neurons (R-DRG-505, Lonza) plated and cultured according to the manufacturer.
Electrophysiology: Cells were used for electrophysiological recording at least 48 hours following rDRG isolation or at least 5 days following cryopreserved rDRG thawing. Round small neurons (20-40 μm in diameter) were selected for electrophysiology recordings, to select for small nociceptive neurons that propagate pain sensation in vivo and that are expressing both Kv7.2/3 and TRPV1 targets. Membrane excitability was monitored using current clamp configuration of the whole-cell patch-clamp technique. Positive current steps of different amplitude were injected (400 ms) to induce spikes trains before and following compound application.
To assess the potency of compounds using DRG neurons, the inhibitory potency for CAP-evoked action potential (AP) trains was measured. For this purpose, DRG membrane potential was continuously measured, and the following protocol was performed:
Cells were perfused with vehicle containing bath solution. After 30 seconds, CAP (1 μM) was applied for 6 seconds to activate TRPV1 and stimulate AP trains.
After 30 seconds of perfusion with bath solution containing only vehicle, perfusion was changed to a bath solution containing compound, and after 3 minutes of compound application, CAP (1 μM) was applied again for 6 seconds to activate TRPV1 and stimulate AP trains.
Cells perfusion was changed back to bath solution containing only vehicle and after 3 minutes of compound washout, CAP (1 μM) was applied again for 6 seconds to activate TRPV1 and stimulate AP trains.
To evaluate the drug/control response, the number of AP spikes induced by CAP following incubation with test compound was divided by the average number of control AP spikes induced without compound, before compound incubation, and following its washout.

[5] = 1-octanol/phosphate buffer, read-out: LogD

microsomal CLint at 1 µM ([1]; human liver microsomes)	logD [3, 5]	IC50 [4]	half-life at 1 µM ([1]; human liver microsomes)	Structure (SMILES)	IC50 ([2]; Table 1, read-out: hERG IC50)	hERG IC50 (inhibition in parentheses) ([2]; Table 1)	IC50 ([2]; hERG IC50 HCS)	HLM and/or Rat PK clearance rates compared to compound 661 [1]	further results
839 µL/min/mg	4.25			COC[C@@H](CO)NC(=O)Cc1cc(Sc2c(Cl)cc(F)cc2C(C)C)ccc1F [Compound 415]	> 23000 nM	0%			
91.8 µL/min/mg	4.08			CC(C)c1cc(Cl)cc(Cl)c1C(=O)c1ccc(F)c(CC(=O)NCC(C)(C)O)c1 [Compound 417-4]	> 35000 nM	0%			
		< 100 nM		Cc1cn(-c2ccc(F)c(CC(=O)NCC(C)(C)O)c2)c2c(Cl)cc(Cl)cc12 [Compound 421-6]	> 2500 nM	0%			HLM Clint ([1]; human liver microsomes, 1 µM): 55.5 µL/min/mg; Inhibition of capsaicin induced AP response ([4]; 100 nM): 63.4±17.8%; Inhibition of capsaicin induced AP response ([4]; 500 nM): 86.5±8.4%; Inhibition of AP response to capsaicin ([4]; 2 μM): 97.9±2.1%; logD [3]: 5.47
	5.45	25 nM	25 min	Cc1cn(-c2ccc(F)c(CC(=O)NCC(C)(C)O)c2)c2c(Cl)cc(Cl)cc12 [Compound 421]			> 2500 nM		CLint scaled at 1 µM ([1]; human liver microsomes): 3 L/h/kg; IC50 ([4]; listed as BS421): 25 nM
		0.1 nM		O=C(Cc1cc(-n2cc(Cl)c3cc(Cl)cc(Cl)c32)ccc1F)NCCO [Compound 627]	> 2500 nM	0%	> 2650 nM		Inhibition of capsaicin-evoked action potential firing ([4]; 0.1 nM): about 50%; Inhibition of capsaicin-evoked action potential firing ([4]; 1 nM): completely blocked
72 µL/min/mg	3.55	0.003 nM and 0.002 nM and < 0.003 nM	19.2 min	O=C(Cc1cncc(-n2cc(Cl)c3cc(Cl)cc(Cl)c32)c1)N[C@@H]1COC[C@H]1O [Compound 661]	> 16600 nM	0%	18700 nM		CLint scaled at 1 µM ([1]; human liver microsomes): 3.89 L/h/kg; HLM T1/2 ([1]; human liver microsomes, 1 µM): 19.3 min; IC50 ([4]; listed as BS661): 0.002 nM; hERG activity [2]: no measurable activity at any concentration tested
	3.82		33.8 min	O=C(Cc1ccnc(-n2cc(Cl)c3cc(Cl)cc(Cl)c32)n1)N[C@@H]1COC[C@H]1O [Compound 820]				improved HLM and/or Rat PK clearance rates compared to compound 661	
	3.75		> 145 min	O=C(Cc1cc(-n2cc(C(F)(F)F)c3cc(Cl)cc(Cl)c32)ncn1)NCCO [Compound 843]				improved HLM and/or Rat PK clearance rates compared to compound 661	
	4.66	500 nM	7.4 min	CC(C)c1cc(Cl)cc(Cl)c1Nc1ccc(F)c(CC(=O)NCC(C)(C)O)c1 [NH91, reference compound]					

Structure (SMILES)	microsomal CLint at 1 µM ([1]; human liver microsomes)	logD [3, 5]	IC50 [4]	half-life at 1 µM ([1]; human liver microsomes)	IC50 ([2]; Table 1, read-out: hERG IC50)	hERG IC50 (inhibition in parentheses) ([2]; Table 1)	IC50 ([2]; hERG IC50 HCS)	HLM and/or Rat PK clearance rates compared to compound 661 [1]	further results
O=C(Cc1nccc(-n2cc(Cl)c3cc(Cl)cc(Cl)c32)n1)NC1COCC1O (stereo not drawn) [Compound 760]		3.28	0.23 nM					improved HLM and/or Rat PK clearance rates compared to compound 661	Inhibition of capsaicin-evoked action potential firing ([4]; 1 nM): about 90%; hERG activity [2]: lacks any effect on hERG and Kv7.3/4/5 activity below 10 μM; IC50 ([2]; human, cho/herg cells, Thallium ions (Tl+) fluorescence, read-out: hERG EC50): 33400 nM
